Laboratory results reported in patent US20240218022A1, “ANTI-VISTA MACROCYCLIC PEPTIDES AND COMPOSITIONS” (BRISTOL-MYERS SQUIBB COMPANY, priority 2022, published 2024).
Starred links: 1 amine or outer side, 2 acyl side, 3 side chain; linkers in the order of their positions; H or OH if unused. Positions of bridges follow the written chain, without caps; N, C: chain ends. Non-standard residues stand in square brackets, D forms with d. Residues, ends and D or L forms follow the SMILES beside them. Phe(4-CONH2) = NC(=O)c1ccc(C[C@H](N)C(=O)O)cc1; Phe(3-Me) = Cc1cccc(C[C@H](N)C(=O)O)c1; βAsp = O=C(O)[C@H](CC(=O)[*:2])N[*:1]; Ahp(2) = CCCCC[C@H](N)C(=O)O; NMeNle = CCCC[C@H](NC)C(=O)O; Tle = CC(C)(C)[C@H](N)C(=O)O; NHexGly = CCCCCCNCC(=O)O; Orn = NCCC[C@H](N)C(=O)O; Aun = NCCCCCCCCCCC(=O)O; Dab = NCC[C@H](N)C(=O)O; AEEA = NCCOCCOCC(=O)O

Target: T1, mouse VISTA (mVISTA) (Mus musculus, UniProt Q9D659)
T1 construct: expressed in transfected cells; host or cells: Human embryonic kidney 293T cells
T1 sequence (Q9D659 33-308): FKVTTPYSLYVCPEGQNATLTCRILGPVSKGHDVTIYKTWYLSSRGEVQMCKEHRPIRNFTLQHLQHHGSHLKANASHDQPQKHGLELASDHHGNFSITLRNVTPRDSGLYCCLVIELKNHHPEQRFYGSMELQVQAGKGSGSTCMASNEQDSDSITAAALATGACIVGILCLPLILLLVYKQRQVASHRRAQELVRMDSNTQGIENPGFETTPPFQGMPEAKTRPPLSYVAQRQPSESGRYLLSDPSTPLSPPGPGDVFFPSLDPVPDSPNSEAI
Assay: Cell-Based Binding High-Content Assay For mVISTA (HC CBA mVISTA)
Conditions: cell-based binding high-content assay, mVISTA; read-out: HC CBA miPrISTA IC50
How it was run: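 Competition of compound with a biotinylated peptide (final 2 nM, 30 min at RT) for binding to mVISTA on 293T cells, run under no-wash or wash (1 h compound preincubation then removal) formats. Readout by Alexa 647–streptavidin imaging on a high-content platform; four-parameter logistic fit gave IC50.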

SMILES	IC50 [nM]
CCCCCCN1CC(=O)N[C@@H](Cc2ccc(O)cc2)C(=O)N[C@@H](CC(C)C)C(=O)N[C@@H](CC(N)=O)C(=O)N[C@@H](CCCNC(=N)N)C(=O)N(C)[C@@H](CCCC)C(=O)N[C@@H](CCCCC)C(=O)N2CCC[C@H]2C(=O)N[C@@H](C(C)(C)C)C(=O)N[C@@H](CC(=O)O)C(=O)N[C@H](C(=O)N[C@@H](CC(=O)NCCOCCOCC(=O)N[C@@H](CC(=O)O)C(=O)NCCOCCOCC(=O)NCCCCCCCCCCC(=O)O)C(=O)O)CSCC(=O)N[C@@H](Cc2ccccc2)C(=O)N[C@@H](Cc2cccc(C)c2)C(=O)N[C@@H](CC(=O)O)C1=O [compound 2075] ({CH2CO}-F[Phe(3-Me)]D[NHexGly]YLNR[NMeNle][Ahp(2)]P[Tle]DC[βAsp][AEEA]D[AEEA][Aun]-OH; thioether N-14)	24.1
CCCCCCN1CC(=O)N[C@@H](Cc2ccc(O)cc2)C(=O)N[C@@H](CC(C)C)C(=O)N[C@@H](CC(N)=O)C(=O)N[C@@H](CCCNC(=N)N)C(=O)N(C)[C@@H](CCCC)C(=O)N[C@@H](CCCCC)C(=O)N2CCC[C@H]2C(=O)N[C@@H](C(C)(C)C)C(=O)N[C@@H](CO)C(=O)N[C@H](C(=O)N[C@@H](CC(=O)NCCOCCOCC(=O)N[C@@H](CC(=O)O)C(=O)NCCOCCOCC(=O)NCCCCCCCCCCC(=O)O)C(=O)O)CSCC(=O)N[C@@H](Cc2ccccc2)C(=O)N[C@@H](Cc2cccc(C)c2)C(=O)N[C@@H](CC(=O)O)C1=O [compound 2076] ({CH2CO}-F[Phe(3-Me)]D[NHexGly]YLNR[NMeNle][Ahp(2)]P[Tle]SC[βAsp][AEEA]D[AEEA][Aun]-OH; thioether N-14)	38.1
CCCCCCN1CC(=O)N[C@@H](Cc2ccc(O)cc2)C(=O)N[C@@H](CC(C)C)C(=O)N[C@@H](CC(N)=O)C(=O)N[C@@H](CCCN)C(=O)N(C)[C@@H](CCCC)C(=O)N[C@@H](CCCCC)C(=O)N2CCC[C@H]2C(=O)N[C@@H](C(C)(C)C)C(=O)N[C@@H](CO)C(=O)N[C@H](C(=O)N[C@@H](CC(=O)NCCOCCOCC(=O)N[C@@H](CC(=O)O)C(=O)NCCOCCOCC(=O)NCCCCCCCCCCC(=O)O)C(=O)O)CSCC(=O)N[C@@H](Cc2ccccc2)C(=O)N[C@@H](Cc2cccc(C)c2)C(=O)N[C@@H](CC(=O)O)C1=O [compound 2077] ({CH2CO}-F[Phe(3-Me)]D[NHexGly]YLN[Orn][NMeNle][Ahp(2)]P[Tle]SC[βAsp][AEEA]D[AEEA][Aun]-OH; thioether N-14)	33.5
CCCCCCN1CC(=O)N[C@@H](Cc2ccc(O)cc2)C(=O)N[C@@H](CC(C)C)C(=O)N[C@@H](CC(N)=O)C(=O)N[C@@H](CCCNC(=N)N)C(=O)N(C)[C@@H](CCCC)C(=O)N[C@@H](CCCCC)C(=O)N2CCC[C@H]2C(=O)N[C@@H](C(C)(C)C)C(=O)N[C@@H](CO)C(=O)N[C@H](C(=O)N[C@@H](CCCCN)C(=O)NCCOCCOCC(=O)N[C@@H](CC(=O)O)C(=O)NCCOCCOCC(=O)NCCCCCCCCCCC(=O)O)CSCC(=O)N[C@@H](Cc2ccccc2)C(=O)N[C@@H](Cc2ccc(O)cc2)C(=O)N[C@@H](CC(=O)O)C1=O [compound 2080] ({CH2CO}-FYD[NHexGly]YLNR[NMeNle][Ahp(2)]P[Tle]SCK[AEEA]D[AEEA][Aun]-OH; thioether N-14)	28.5
CCCCCCN1CC(=O)N[C@@H](Cc2ccc(O)cc2)C(=O)N[C@@H](CC(C)C)C(=O)N[C@@H](CC(N)=O)C(=O)N[C@@H](CCCNC(=N)N)C(=O)N(C)[C@@H](CCCC)C(=O)N[C@@H](CCCCC)C(=O)N2CCC[C@H]2C(=O)N[C@@H](C(C)(C)C)C(=O)N[C@@H](CC(=O)O)C(=O)N[C@H](C(=O)N[C@@H](CCCN)C(=O)NCCOCCOCC(=O)N[C@@H](CC(=O)O)C(=O)NCCOCCOCC(=O)NCCCCCCCCCCC(=O)O)CSCC(=O)N[C@@H](Cc2ccccc2)C(=O)N[C@@H](Cc2ccc(O)cc2)C(=O)N[C@@H](CC(=O)O)C1=O [compound 2082] ({CH2CO}-FYD[NHexGly]YLNR[NMeNle][Ahp(2)]P[Tle]DC[Orn][AEEA]D[AEEA][Aun]-OH; thioether N-14)	27.6
CCCCCCN1CC(=O)N[C@@H](Cc2ccc(O)cc2)C(=O)N[C@@H](CC(C)C)C(=O)N[C@@H](CC(N)=O)C(=O)N[C@@H](CCCNC(=N)N)C(=O)N(C)[C@@H](CCCC)C(=O)N[C@@H](CCCCC)C(=O)N2CCC[C@H]2C(=O)N[C@@H](C(C)(C)C)C(=O)N[C@@H](CC(=O)O)C(=O)N[C@H](C(=O)N[C@@H](CCN)C(=O)NCCOCCOCC(=O)N[C@@H](CC(=O)O)C(=O)NCCOCCOCC(=O)NCCCCCCCCCCC(=O)O)CSCC(=O)N[C@@H](Cc2ccccc2)C(=O)N[C@@H](Cc2ccc(O)cc2)C(=O)N[C@@H](CC(=O)O)C1=O [compound 2085] ({CH2CO}-FYD[NHexGly]YLNR[NMeNle][Ahp(2)]P[Tle]DC[Dab][AEEA]D[AEEA][Aun]-OH; thioether N-14)	41.7
CCCCCCN1CC(=O)N[C@@H](Cc2ccc(O)cc2)C(=O)N[C@@H](CC(C)C)C(=O)N[C@@H](CC(N)=O)C(=O)N[C@@H](CCCNC(=N)N)C(=O)N(C)[C@@H](CCCC)C(=O)N[C@@H](CCCCC)C(=O)N2CCC[C@H]2C(=O)N[C@@H](C(C)(C)C)C(=O)N[C@@H](CO)C(=O)N[C@H](C(=O)N[C@@H](CCN)C(=O)NCCOCCOCC(=O)N[C@@H](CC(=O)O)C(=O)NCCOCCOCC(=O)NCCCCCCCCCCC(=O)O)CSCC(=O)N[C@@H](Cc2ccccc2)C(=O)N[C@@H](Cc2ccc(O)cc2)C(=O)N[C@@H](CC(=O)O)C1=O [compound 2086] ({CH2CO}-FYD[NHexGly]YLNR[NMeNle][Ahp(2)]P[Tle]SC[Dab][AEEA]D[AEEA][Aun]-OH; thioether N-14)	49.9
CCCCCCN1CC(=O)N[C@@H](Cc2ccc(O)cc2)C(=O)N[C@@H](CC(C)C)C(=O)N[C@@H](CC(N)=O)C(=O)N[C@@H](CCCNC(=N)N)C(=O)N(C)[C@@H](CCCC)C(=O)N[C@@H](CCCCC)C(=O)N2CCC[C@H]2C(=O)N[C@@H](C(C)(C)C)C(=O)N[C@@H](CO)C(=O)N[C@H](C(=O)N[C@@H](CC(=O)NCCOCCOCC(=O)N[C@@H](CC(=O)O)C(=O)NCCOCCOCC(=O)NCCCCCCCCCCC(=O)O)C(=O)O)CSCC(=O)N[C@@H](Cc2ccc(C(N)=O)cc2)C(=O)N[C@@H](Cc2ccc(O)cc2)C(=O)N[C@@H](CC(=O)O)C1=O [compound 2087] ({CH2CO}-[Phe(4-CONH2)]YD[NHexGly]YLNR[NMeNle][Ahp(2)]P[Tle]SC[βAsp][AEEA]D[AEEA][Aun]-OH; thioether N-14)	28.8
CCCCCCN1CC(=O)N[C@@H](Cc2ccc(O)cc2)C(=O)N[C@@H](CC(C)C)C(=O)N[C@@H](CC(N)=O)C(=O)N[C@@H](CCCNC(=N)N)C(=O)N(C)[C@@H](CCCC)C(=O)N[C@@H](CCCCC)C(=O)N2CCC[C@H]2C(=O)N[C@@H](C(C)(C)C)C(=O)N[C@@H](CC(=O)O)C(=O)N[C@H](C(=O)N[C@@H](CC(=O)NCCOCCOCC(=O)N[C@@H](CC(=O)O)C(=O)NCCOCCOCC(=O)NCCCCCCCCCCC(=O)O)C(=O)O)CSCC(=O)N[C@@H](Cc2ccc(C(N)=O)cc2)C(=O)N[C@@H](Cc2ccc(O)cc2)C(=O)N[C@@H](CC(=O)O)C1=O [compound 2088] ({CH2CO}-[Phe(4-CONH2)]YD[NHexGly]YLNR[NMeNle][Ahp(2)]P[Tle]DC[βAsp][AEEA]D[AEEA][Aun]-OH; thioether N-14)	16.9
CCCCCCN1CC(=O)N[C@@H](Cc2ccc(O)cc2)C(=O)N[C@@H](CC(C)C)C(=O)N[C@@H](CC(N)=O)C(=O)N[C@@H](CCCNC(=N)N)C(=O)N(C)[C@@H](CCCC)C(=O)N[C@@H](CCCCC)C(=O)N2CCC[C@H]2C(=O)N[C@@H](C(C)(C)C)C(=O)N[C@@H](CO)C(=O)N[C@H](C(=O)N[C@@H](CC(=O)NCCOCCOCC(=O)N[C@@H](CC(=O)O)C(=O)NCCOCCOCC(=O)NCCCCCCCCCCC(=O)O)C(=O)O)CSCC(=O)N[C@@H](Cc2ccc(C(N)=O)cc2)C(=O)N[C@@H](Cc2c[nH]c3ccccc23)C(=O)N[C@@H](CC(=O)O)C1=O [compound 2090] ({CH2CO}-[Phe(4-CONH2)]WD[NHexGly]YLNR[NMeNle][Ahp(2)]P[Tle]SC[βAsp][AEEA]D[AEEA][Aun]-OH; thioether N-14)	34.4
CCCCCCN1CC(=O)N[C@@H](Cc2ccc(O)cc2)C(=O)N[C@@H](CC(C)C)C(=O)N[C@@H](CC(N)=O)C(=O)N[C@@H](CCCNC(=N)N)C(=O)N(C)[C@@H](CCCC)C(=O)N[C@@H](CCCCC)C(=O)N2CCC[C@H]2C(=O)N[C@@H](C(C)(C)C)C(=O)N[C@@H](CC(=O)O)C(=O)N[C@H](C(=O)N[C@@H](CC(=O)NCCOCCOCC(=O)N[C@@H](CC(=O)O)C(=O)NCCOCCOCC(=O)NCCCCCCCCCCC(=O)O)C(=O)O)CSCC(=O)N[C@@H](Cc2ccc(C(N)=O)cc2)C(=O)N[C@@H](Cc2c[nH]c3ccccc23)C(=O)N[C@@H](CC(=O)O)C1=O [compound 2091] ({CH2CO}-[Phe(4-CONH2)]WD[NHexGly]YLNR[NMeNle][Ahp(2)]P[Tle]DC[βAsp][AEEA]D[AEEA][Aun]-OH; thioether N-14)	14.6
CCCCCCN1CC(=O)N[C@@H](Cc2ccc(O)cc2)C(=O)N[C@@H](CC(C)C)C(=O)N[C@@H](CC(N)=O)C(=O)N[C@@H](CCCN)C(=O)N(C)[C@@H](CCCC)C(=O)N[C@@H](CCCCC)C(=O)N2CCC[C@H]2C(=O)N[C@@H](C(C)(C)C)C(=O)N[C@@H](CC(=O)O)C(=O)N[C@H](C(=O)N[C@@H](CC(=O)NCCOCCOCC(=O)N[C@@H](CC(=O)O)C(=O)NCCOCCOCC(=O)NCCCCCCCCCCC(=O)O)C(=O)O)CSCC(=O)N[C@@H](Cc2ccc(C(N)=O)cc2)C(=O)N[C@@H](Cc2ccc(O)cc2)C(=O)N[C@@H](CC(=O)O)C1=O [compound 2092] ({CH2CO}-[Phe(4-CONH2)]YD[NHexGly]YLN[Orn][NMeNle][Ahp(2)]P[Tle]DC[βAsp][AEEA]D[AEEA][Aun]-OH; thioether N-14)	15.8
